“And” between values parts separate entries of the source, which are not always exact repeats. Equal values may be shown once.

Assay type in all cases: cell-based, human
In one data set the test system is HMC3 cells. In words: cytotoxicity MTT assay in HMC3 cells. As to conditions: MPP^+ at 4 mM. The protocol:
(§1) Human HMC3 microglial (CRL-3304) and neuroblastoma BE(2)-M17 (CRL-2267) cells were obtained from American Type Culture Collection. BE(2)-M17 develops a better dopaminergic phenotype than SH-SY5Y when treated with retinoic acid to direct neuronal differentiation (Carvajal-Oliveros et al., [2022]). Cells were routinely maintained in Dulbecco's Modified Eagle Medium-Nutrient Mixture F12 (DMEM-F12) supplemented with 10% fetal bovine serum (FBS; Thermo Fisher Scientific, Waltham, MA, USA) in a 37°C incubator, with 95% relative humidity and 5% CO2 (NuAire, Plymouth, MN, USA).
(§2) To evaluate cytotoxicity of LM compounds and MPP^+, HMC3 (1 × 10^4) or BE(2)-M17 (2 × 10^4) cells were plated on 96-well dishes, grown for 20 h, and treated with LM compounds (1–100 μM) or MPP^+ [HMC3: 0–8 mM; BE(2)-M17: 0–5 mM]. Next day, 20 μl of tetrazolium dye 3-(4,5-dimethylthiazol-2-yl)-2,5-diphenyltetrazolium bromide (MTT, 5 mg/ml; Sigma-Aldrich) was added to the cells at 37°C for 3 h. The resulted insoluble purple formazan products were dissolved by lysis buffer (composition: 10% Triton X-100, 0.1 N HCl, 18% isopropanol). The absorbance of the dissolved product at optical density (OD) 570 nm was read by using a FLx800 fluorescence microplate spectrophotometer (Bio-Tek, Winooski, VT, USA). The half maximal inhibitory concentration (IC50) of LM compounds was determined through the construction of a dose-response curve. MPP^+ at 4 mM (HMC3 cell viability: 65%−69%) or 0.62 mM [BE(2)-M17 cell viability: 79%−84%] was selected to induce inflammation for further experiments.
(Formazan colour is commonly taken as a measure of viable cells.)

For a further data set, the system named is BE(2)-M17 cells. In words: cytotoxicity MTT assay in BE(2)-M17 cells. As to conditions: MPP^+ at 0.62 mM. The protocol:
as §1, §2

The subject of a further data set is NLRP3. Nature of the data set: Western blot NLRP3 in MPP^+-stimulated HMC3 cells. The settings on record: HMC3, 4 mM MPP^+ alone; untreated = 100%. The protocol: (§3) HMC3 (2 × 10^5/6-well) or BE(2)-M17 (4 × 10^5/6-well) cells were lysed in buffer (composition: 50 mM Tris-HCl pH8.0, 2 mM EDTA pH8.0, 150 mM NaCl, 0.5% sodium deoxycholate, 0.1% SDS, 50 mM NaF, 1% NP40) containing the protease and/or phosphatase inhibitor cocktail (Sigma-Aldrich). After sonication, the lysates were centrifuged (12,000 × g for 10 min at 4°C) and protein concentrations determined (Bradford protein assay; Bio-Rad, Hercules, CA, USA). Aliquots of protein (20 μg) were separated by electrophoresis using 10%−12% SDS–polyacrylamide gel followed by transfer to a polyvinylidene fluoride (PVDF) membrane. […] The immune complexes were detected using horseradish peroxidase (HRP)-conjugated goat anti-mouse or goat anti-rabbit IgG antibody (1:5,000; GeneTex) and chemiluminescent HRP substrate (Millipore, Burlington, MA, USA). Immunoreactive bands were captured (ImageQuant™ LAS 4000, GE Healthcare, Chicago, IL, USA) and quantified (Multi Gauge V3.0 software, Fujifilm, Tokyo, Japan).
A general note: Immunoblotting shows a protein as a band on a membrane.

Another data set deals with iNOS. In words: Western blot iNOS in MPP^+-stimulated HMC3 cells. As to conditions: HMC3, 4 mM MPP^+ alone; untreated = 100%. The protocol: as §3
The subject of a further data set is IL-1β. In words: Western blot IL-1β in MPP^+-stimulated HMC3 cells. The settings on record: HMC3, 4 mM MPP^+ alone; untreated = 100%. As for the experimental part: as §3
Another data set relates to caspase-6. In words: caspase-6 activity assay in MPP^+-treated BE(2)-M17 cells. As to conditions: BE(2)-M17, 0.62 mM MPP^+ alone; untreated = 100%. As for the experimental part: BE(2)-M17 cells were plated onto six-well (4 × 10^5/well) and treated with retinoic acid, LM compounds (10 μM), and MPP^+ as described. Cells were collected on day 7 and lysed by six freeze/thaw cycles. Types of substrates applied were: Ac-Tyr-Val-Ala-Asp-7-amino-4-trifluoromethyl coumarin (YVAD-AFC) for caspase-1, Ac-Val-Glu-Ile-Asp-7-amino-4-trifluoromethyl coumarin (VEID-AFC) for caspase-6 (BioVision, Milpitas, CA, USA), and Ac-Asp-Glu-Val-Asp-7-amido-4-methylcoumarin (DEVD-AMC) for caspase-3 (Sigma-Aldrich). The reaction mixtures were incubated for 1.5 h at 37°C per the manufacturer's instructions. The fluorescence intensity at 400 nm excitation and 505 nm emission (caspase-1 and caspase-6) or 360 nm excitation and 460 nm emission (caspase-3) wavelengths were recorded (BioTek FLx800).

For `C[n+]1ccc(-c2ccccc2)cc1` [MPP^+, 1-methyl-4-phenyl pyridinium, reference compound], the cell viability in the data set on HMC3 cells is 65%−69%; in the data set with BE(2)-M17 cells, 79%−84% and 80%. The NLRP3 expression with NLRP3 is 233%. Besides, the iNOS expression with iNOS is given as 156%. For the same compound, in the data set on IL-1β, the IL-1β expression was found to be 326%. Besides, the caspase-6 activity in the data set on caspase-6 turned out to be 116%.

For the origin of these results see article PMC11473416, “Coumarin-chalcone derivatives as dual NLRP1 and NLRP3 inflammasome inhibitors targeting oxidative stress and inflammation in neurotoxin-induced HMC3 and BE(2)-M17 cell models of Parkinson's disease” (Frontiers in Aging Neuroscience, 2024).
